According to patent US5053399A, “Myo-inositol analogs and methods for their use” (University of Pittsburgh, priority 1990, dated 1991):

Key:
[1] = system: PC12 cells; experiment: Uptake and incorporation of [3H]myo-inositol into PC12 cells following treatment with inositol analogs; format: cell-based, rat
Experimental: Since myo-inositol must be incorporated into the cellular plasma membranes in order for it to serve its role as a second messenger, we therefore verified the ability of the 1- and 3-fluoro-myo-inositol analogs to perturb the incorporation of myo-inositol into cellular plasma membranes by the enzyme CDP-diacylglycerol-inositol phosphatidyltransferase (phosphatidylinositol synthetase).
These tests were conducted by treating cells for either 1, 3, 5, or 7 days with the myo-inositol analogs, followed by a brief exposure to radiolabeled myo-inositol ([^3 H]myo-inositol). The extent of incorporation of tritiated myo-inositol would, therefore, reflect the extent to which phosphatidylinositol and its phosphorylated analogs are deficient in the cellular plasma membranes.
Cells were grown as described hereinabove. Twenty-four hours after plating, the medium was changed and cells were exposed to either inositol free medium (Control 2) or medium containing either the 1- or the 3-fluoro-myo-inositol analog. […] Samples from both the pellet and supernatant were then obtained and the levels of radioactivity in each were determined. Radioactivity in the supernatant corresponded to the amount of free [^3 H]myo-inositol in the cytoplasm of the cell, whereas the radioactivity present in the TCA-precipated pellet represented [^3 H]myo-inositol incorporated into the cellular plasma membranes. […]

[2] = target: T1, myo-inositol transporter (Rattus norvegicus, UniProt Q80WA5); experiment: [3H]myo-inositol uptake by the myo-inositol transporter in PC12 cells; format: cell-based; settings: for Maximal Transport Rate Vmax: in presence of fixed 1 mM analog
T1 construct: PC12 cells were gently detached and maintained in a suspension culture; endogenous in cells; host or cells: PC12
T1 sequence (Q80WA5 1-718): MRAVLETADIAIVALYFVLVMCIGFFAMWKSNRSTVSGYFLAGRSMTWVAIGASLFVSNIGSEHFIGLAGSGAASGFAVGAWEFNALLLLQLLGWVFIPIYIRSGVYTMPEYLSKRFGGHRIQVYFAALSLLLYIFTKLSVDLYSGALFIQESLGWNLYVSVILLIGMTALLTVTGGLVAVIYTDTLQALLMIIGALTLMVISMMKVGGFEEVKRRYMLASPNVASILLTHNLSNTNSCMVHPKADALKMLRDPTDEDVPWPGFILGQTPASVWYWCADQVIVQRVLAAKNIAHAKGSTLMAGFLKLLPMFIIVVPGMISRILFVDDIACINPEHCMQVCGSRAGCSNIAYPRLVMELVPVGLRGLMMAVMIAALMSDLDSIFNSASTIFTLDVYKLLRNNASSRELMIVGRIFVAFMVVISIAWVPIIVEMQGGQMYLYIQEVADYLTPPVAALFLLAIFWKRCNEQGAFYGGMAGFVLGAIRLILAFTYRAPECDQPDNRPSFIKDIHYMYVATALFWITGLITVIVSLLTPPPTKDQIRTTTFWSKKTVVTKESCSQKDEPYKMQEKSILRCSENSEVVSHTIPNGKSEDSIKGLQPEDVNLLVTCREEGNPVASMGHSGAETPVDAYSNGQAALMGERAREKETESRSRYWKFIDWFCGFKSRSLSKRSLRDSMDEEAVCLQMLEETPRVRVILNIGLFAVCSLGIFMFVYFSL
Experimental: To determine if the effect of the fluoro-myo-inositol analogs might be mediated by the blockade of the myo-inositol transporter, which is responsible for uptake and accumulation of myo-inositol into the cell, the ability of these two compounds to block [^3 H]myo-inositol transport was studied directly.
The uptake of [^3 H]myo-inositol by the myo-inositol transporter was determined as follows: PC12 cells were gently detached and maintained in a suspension culture in RPMI medium (both myo-inositol and serum free) at 37° C. [^3 H]myo-inositol was added to this culture at a concentration of 1μCi/ml. Aliquots of this suspension were removed at the indicated time, diluted in 10 volumes of ice-cold PBS containing 10 mM unlabelled myo-inositol to stop the uptake process, centrifuged at 4° C. for 20 minutes at 50xg. The cell pellet, which contained the transported [^3 H]myo-inositol, was dissolved in dilute NaOH and the radioactivity quantified by liquid scintillation counting.
The […] and Vmax of myoinositol were determined from LineweaverBurke plots
of the uptake of [^3 H]myoinositol (25 nM) in the presence of
increasing concentrations of unlabeled myoinositol in PC12 cells. The Ki
of the two fluoromyo-inositol analogs was determined by conducting the
uptake studies in the presence of a fixed concentration (1 mM) of each

[3] = system: PC12 cells; experiment: Effects of fluoroinositol treatment on cell size (protein per cell, Lowry); format: cell-based, rat
Text: As cells grow in culture, the size of an individual cell varies in a fairly predictable way. The size of a cell can be expressed as the amount of protein present per cell. […] Immediately after mitosis, the cell size drops considerably, frequently to levels approximately half of the pre-mitotic level.
By investigating the size of a cell, it is possible to determine at which point within the cell cycle inhibitors of cell replication are exerting their effects. Accordingly, we investigated the effect of the 1- and 3-fluoro-myo-inositol analogs on the size of cells chronically treated with such analogs.
Cells were grown and treated with 1- and 3-fluoro-myo-inositol analogs as described in Example XIII. On the days indicated, cells were gently harvested without disruption, and the number of cells counted in triplicate in a cell counting chamber. Following determination of the number of cells per sample, the remainder of the cells were pelleted in a microcentrifuge as described hereinabove, and the protein in the sample was determined by the method of Lowry. Thus, it was possible to derive from these two data sets the amount of protein per cell, which is expressed as nanograms of protein per cell, as indicated in Table 3: […]

[4] = system: PC12 cells; experiment: Cell growth inhibition in PC12 cells (cell counts; dose response and time course); format: cell-based, rat; settings: dose response
Experimental: The biological effects of the 3-fluoro and 1-fluoro myo-inositol analogs were tested in PC12 cells, a cell line derived from a rat pheochromocytoma, which has been widely used to study the effects of various growth factors and differentiation promoters as further described by Green, L. A., et al., Adv. Cell Neurobiol., 3, 373-414, (1982), the disclosure of which is incorporated herein by reference.
PC12 cells were seeded at a density of 3.3×10^5 cells/cm^2 in plastic culture dishes and grown at 37° C. in a humidified atmosphere of 95% air/5% CO2. The basal medium used in these experiments was RPMI-1640 medium (Gibco). In some experiments a specially formulated inositol-free RPMI-1640 medium (Gibco) was used. This basal medium was supplemented with either normal or extensively dialyzed horse serum (10%) and fetal calf serum (5%) (Gibco). […]
A dose-response study was performed by growing cells in the presence of certain concentrations of the 3-fluoro and the 1-fluoro-myo-inositol analogs. At the end of five days, the cells were counted by the means described hereinabove.
The time course effect on cell replication was then examined, using the concentration of 1-fluoro and 3-fluoro myo-inositol analogs determined to have maximal effects in the dose response study of Table 1. […]

Structure (SMILES) | level of radioactively-labeled myo-inositol incorporated into the cellular plasma membranes ([1]; PC12 cells, result in words) | Maximal Transport Rate Vmax [2] [nmol/mg/h] | Affinity Constant K (Ka) ([2]; Lineweaver-Burke plots, [3H]myo-inositol 25 nM with increasing unlabeled myo-inositol) [µM] | increase in the number of unoccupied sites for myo-inositol in the cellular plasma membranes ([1]; after several days of exposure) [fold] | plateau of protein per cell relative to protein levels on day one [3] | potency in inhibiting cell replication relative to the 3-fluoro-myo-inositol analog [4] | potency in inhibiting cell replication relative to the 3-fluoro-myo-inositol analog ([4]; listed as I-fluoro-myo-inositol analog) [fold]
O[C@@H]1[C@@H](O)[C@H](O)[C@@H](F)[C@@H](O)[C@H]1O [3-deoxy-3-fluoroinositol, 3-deoxy-3-fluoro-myo-inositol] | quite low | 2.27 |  |  |  |  | 
O[C@H]1[C@H](O)[C@@H](O)[C@H](O)[C@@H](O)[C@H]1O [Myo-inositol, myo-inositol] |  |  | 45 |  |  |  | 
O[C@@H]1[C@@H](O)[C@@H](O)[C@@H](F)[C@H](O)[C@H]1O [1-deoxy-1-fluoroinositol, 1-deoxy-1-fluoro-myo-inositol] |  | 2.27 |  | 10 | approximately twice | about five-fold more potent | 5
